Structures can show the parent of a compound that is named as a salt. Where two headings read alike, the source gives them in different places.
What was measured:
[1] = test system: Nrf2 (ARE-luciferase reporter), DLD-1/ARE-E2; assay: ARE-luciferase reporter assay of Nrf2 activation, DLD-1/ARE-E2 cells; assay type: cell-based, human; details: summary for DLD-1 and MCF-7 reporter cell lines
Description: Human cancer cell line DLD-1 and breast cancer cell line MCF7 reporter stable cell lines were generated by transfection with a firefly luciferase reporter construct harboring the luciferase cDNA cloned downstream of eight catenated copies of the antioxidant response element ([…] ID NO.:1). See Wang et al. Cancer Res. 2006; 66:10983-94. To measure Nrf2 activation in the ARE-luciferase reporter cell lines, the cells were plated in 96-well plates at 20-50 k cells/well 24 hours prior to stimulation with the test compounds. […] The reporter cells were harvested 24 hours-48 hours after addition of the compounds and lysed for detection of luciferase activity. Luciferase activity in the lysates was monitored using the Bright-Glo Luciferase Assay System of Promega and Tecan Genios Pro plate reader. Luciferase induction in the compound-treated cells was calculated as fold change over the baseline activity detected in control cultures treated with DMSO-containing media.

Nrf2-Keap1 Pathway = assay: DiscoverRx PathHunter Nrf2-Keap1 nuclear translocation biosensor assay; assay type: cell-based; details: agonist mode, 6 hours incubation at room temperature; read-out: Nrf2 activation EC50
From the text: The PathHunter® Nuclear Translocation assay detects translocation of a target protein to, or from, the nucleus. In this system, Prolink™ (PK), a small enzyme fragment, is fused to the protein of interest and Enzyme Acceptor (EA) is localized in the nucleus. Activation of the signaling pathway induces the target protein to either transit into the nucleus, thus forcing complementation of the PK and EA fragments, or out of the nucleus, hindering complementation of the fragments. PathHunter Pathway cell lines were expanded from freezer stocks according to standard procedures. 5000 cells were seeded in Cell Plating Reagent 0 (containing 1% FBS) to a total volume of 20 μL into white walled, 384-well microplates and incubated for the overnight prior to testing. For Agonist determination, cells were incubated with sample to induce response. Dilution of sample stocks was performed to generate 100× sample in DMSO. […] Vehicle concentration was 1%. Assay signal was generated through a single addition of 25 μL (100% v/v) of PathHunter Flash Detection reagent, followed by a one hour incubation at room temperature. Microplates were read following signal generation with a PerkinElmer Envision™ instrument for chemiluminescent signal detection. Compound activity was analyzed using CBIS data analysis suite (ChemInnovation, CA). For agonist mode assays, percentage activity was calculated using the following formula: % Activity=100%×(mean RLU of test sample−mean RLU of vehicle control)/(mean MAX RLU control ligand−mean RLU of vehicle control).

[2] = Oral cassette co-administration PK with DMF in male SD rats (plasma, LC/MS/MS); details: equivalent oral dose of 50 mg/kg of DMF, same study
[3] = Oral PK at 100 mg/kg in male SD rats; details: in vivo, rat, read-out: half-life of MMF (converted)
Description: The concentration of the compounds was determined by LC/MS/MS. […] The concentration of D-MMF was determined by LC/MS/MS. […] The concentration of D-MMF was determined by LC/MS/MS.

EC50 (Nrf2-Keap1 Pathway) [µM] | oral exposure compared to DMF [2] | half-life ([3]; male, SD, 100 mg/Kg oral dose) [min] | half-life ([3]; oral, 100 mg/Kg, species not stated for this figure) [min] | SMILES | activation of ARE-dependent signaling of the luciferase reporter construct [1]
 |  |  |  | O=C(O)/C=C/C(=O)O.[2H]C([2H])([2H])OC(=O)/C=C/C(=O)O [Example 2, (^2H3)methyl Fumaric Acid Ester] | able to activate ARE-dependent signaling
7.97 | higher oral exposure |  |  | [2H]/C(C(=O)O)=C(/[2H])C(=O)O.[2H]/C(C(=O)OC([2H])([2H])[2H])=C(/[2H])C(=O)OC([2H])([2H])[2H] [Example 8] | 
6.57 | higher oral exposure |  |  | O=C(O)/C=C/C(=O)O.[2H]C([2H])([2H])OC(=O)/C=C/C(=O)OC([2H])([2H])[2H] [Example 1, (^2H6)dimethyl Fumaric Acid Ester] | able to activate ARE-dependent signaling
4.78 | higher oral exposure |  |  | [2H]/C(C(=O)OC)=C(/[2H])C(=O)OC [Example 4] | 
 |  | 54 | ~60 | COC(=O)/C=C/C(=O)O [MMF, monomethyl fumarate] | 
5.4 |  |  |  | COC(=O)/C=C/C(=O)OC [DMF, dimethyl fumarate, reference compound] | 
